Assay results taken from BindingDB's records for patent US20230303494 (Academy of Military Medical Sciences, 2023).

Target: Programmed cell death 1 ligand/protein 1 (Homo sapiens, UniProt Q9NZQ7+Q15116)
Assay: Activity of Compounds to Inhibit PD-1/PD-L1 Interaction

Sequence of Programmed cell death 1 ligand/protein 1 (Q9NZQ7 whole entry): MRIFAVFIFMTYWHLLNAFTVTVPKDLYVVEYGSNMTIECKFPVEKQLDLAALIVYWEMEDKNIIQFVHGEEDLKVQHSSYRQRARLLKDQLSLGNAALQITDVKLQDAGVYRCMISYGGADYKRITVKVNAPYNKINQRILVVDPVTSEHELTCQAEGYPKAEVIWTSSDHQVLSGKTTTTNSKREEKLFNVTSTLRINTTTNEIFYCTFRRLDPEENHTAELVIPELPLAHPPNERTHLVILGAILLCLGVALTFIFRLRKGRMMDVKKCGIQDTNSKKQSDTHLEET
Sequence of Programmed cell death 1 ligand/protein 1 (Q15116 whole entry): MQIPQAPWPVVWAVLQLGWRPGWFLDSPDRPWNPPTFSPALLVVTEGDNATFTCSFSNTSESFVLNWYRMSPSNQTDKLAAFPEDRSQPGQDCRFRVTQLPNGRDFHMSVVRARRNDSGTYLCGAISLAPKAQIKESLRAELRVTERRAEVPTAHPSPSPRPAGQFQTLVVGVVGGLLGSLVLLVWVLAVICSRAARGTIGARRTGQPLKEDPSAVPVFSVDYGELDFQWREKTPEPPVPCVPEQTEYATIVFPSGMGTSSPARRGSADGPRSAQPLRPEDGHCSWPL

SMILES	IC50
Cc1c(CNc2cc(OCc3cncc(C#N)c3)c(CNC(CO)C(=O)O)cc2Cl)cccc1-c1ccccc1 (stereo unspecified) [US20230303494, Compound 13]	26 nM
COc1cc(NCc2cccc(-c3ccccc3)c2C)c(C)cc1CNC(CO)C(=O)O (stereo unspecified) [US20230303494, Compound 14]	253 nM
N#Cc1cncc(COc2cc(NCc3cccc(-c4ccccc4)c3Br)ccc2CNC(CO)C(=O)O)c1 (stereo unspecified) [US20230303494, Compound 31]	206 nM
Cc1cc(CNC(CO)C(=O)O)c(OCc2cncc(C#N)c2)cc1NCc1cccc(-c2ccccc2)c1Br (stereo unspecified) [US20230303494, Compound 32]	31 nM
Cc1cc(CNC(CO)C(=O)O)c(OCc2cncc(C#N)c2)cc1NCc1cccc(-c2ccc3c(c2)OCCO3)c1C (stereo unspecified) [US20230303494, Compound 35]	44 nM
Cc1c(CNc2cc(OCc3cncc(C#N)c3)c(CNC(CO)C(=O)O)cc2Cl)cccc1-c1ccc2c(c1)OCCO2 (stereo unspecified) [US20230303494, Compound 36]	131 nM
